Data published in PubChem BioAssay (NCI).
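Results reflect a 48-hour exposure of cells in 96-well plates to compound at five concentrations. GI50 = concentration required for 50% inhibition of growth. TGI: concentration producing complete growth inhibition.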

Tests used:
Experiment in all cases: DTP human tumour cell line panel, 48 h
[1] = system: NCI-H23 lung
[2] = system: DU-145 prostate
[3] = system: SK-MEL-5 melanoma
[4] = system: MCF7 breast
[5] = system: HCT-116 colon
[6] = system: LOX IMVI melanoma
[7] = system: HCC-2998 colon
[8] = system: NCI-H460 lung
[9] = system: HCT-15 colon
[10] = system: OVCAR-5 ovarian
[11] = system: A498 renal
[12] = system: UO-31 renal
[13] = system: T-47D breast
[14] = system: SNB-75 CNS
[15] = system: M14 melanoma
[16] = system: K-562 leukemia
[17] = system: BT-549 breast
[18] = system: 786-0 renal
[19] = system: MDA-MB-435
[20] = system: OVCAR-8 ovarian
[21] = system: UACC-62 melanoma
[22] = system: NCI/ADR-RES ovarian
[23] = system: CCRF-CEM leukemia
[24] = system: PC-3 prostate
[25] = system: HOP-92 NSCLC
[26] = system: SNB-19 CNS
[27] = system: SK-OV-3 ovarian
[28] = system: SF-539 CNS
[29] = system: COLO 205 colon
[30] = system: U251 CNS
[31] = system: TK-10 renal
[32] = system: A549 NSCLC
[33] = system: NCI-H522 lung
[34] = system: OVCAR-3 ovarian
[35] = system: KM12 colon
[36] = system: MOLT-4 leukemia
[37] = system: SK-MEL-2 melanoma
[38] = system: HOP-62 NSCLC
[39] = system: ACHN renal
[40] = system: EKVX NSCLC
[41] = system: MDA-MB-231 breast
[42] = system: MALME-3M melanoma
[43] = system: UACC-257 melanoma
[44] = system: SF-295 CNS
[45] = system: SF-268 CNS
[46] = system: HL-60(TB) leukemia
[47] = system: CAKI-1 renal
[48] = system: RPMI-8226 leukemia
[49] = system: SW-620 colon
[50] = system: OVCAR-4 ovarian
[51] = system: HS 578T breast
[52] = system: SR leukemia
[53] = system: SK-MEL-28 melanoma
[54] = system: HT29 colon
[55] = system: RXF 393 renal
[56] = system: NCI-H226 lung
[57] = system: IGROV1 ovarian
[58] = system: SN12C renal

## CCc1nc2cc(/C=C/C(=O)NO)c(F)cc2c(=O)n1CCc1ccccc1
[1]
  GI50: 1170 nM
  TGI: 4320 nM
[2]
  GI50: 666 nM
  TGI: 10.5 µM
[3]
  GI50: 512 nM
  TGI: 2520 nM
[4]
  GI50: 407 nM
  TGI: 15.1 µM
[5]
  GI50: 313 nM
  TGI: 2910 nM
[6]
  GI50: 488 nM
  TGI: 1970 nM
[7]
  GI50: 1570 nM
  TGI: 11.3 µM
[8]
  GI50: 349 nM
  TGI: 3400 nM
[9]
  GI50: 461 nM
  TGI: 16.5 µM
[10]
  GI50: 1610 nM
  TGI: 12.6 µM
[11]
  GI50: 1020 nM
  TGI: 3390 nM
[12]
  GI50: 735 nM
  TGI: 2730 nM
[13]
  GI50: 290 nM
  TGI: 4950 nM
[14]
  GI50: 2410 nM
  TGI: 17.3 µM
[15]
  GI50: 1150 nM
  TGI: 3800 nM
[16]
  GI50: 1650 nM
  TGI: > 100 µM
[17]
  GI50: 2320 nM
  TGI: 13.4 µM
[18]
  GI50: 1700 nM
  TGI: 4490 nM
[19]
  GI50: 1200 nM
  TGI: 10.2 µM
[20]
  GI50: 753 nM
  TGI: 9.22 µM
[21]
  GI50: 597 nM
  TGI: 3380 nM
[22]
  GI50: 227 nM
  TGI: 2540 nM
[23]
  GI50: 564 nM
  TGI: > 100000 nM
[24]
  GI50: 3960 nM
  TGI: 75.6 µM
[25]
  GI50: 2510 nM
  TGI: 8.94 µM
[26]
  GI50: 1320 nM
  TGI: 12.4 µM
[27]
  GI50: 1680 nM
  TGI: 5280 nM
[28]
  GI50: 874 nM
  TGI: 5.8 µM
[29]
  GI50: 497 nM
  TGI: 3140 nM
[30]
  GI50: 872 nM
  TGI: 3180 nM
[31]
  GI50: 881 nM
  TGI: 5490 nM
[32]
  GI50: 1350 nM
  TGI: 5390 nM
[33]
  GI50: 502 nM
  TGI: 3980 nM
[34]
  GI50: 385 nM
  TGI: 4760 nM
[35]
  GI50: 2140 nM
  TGI: 15.5 µM
[36]
  GI50: 1030 nM
  TGI: > 100000 nM
[37]
  GI50: 2640 nM
  TGI: 9.37 µM
[38]
  GI50: 1050 nM
  TGI: 5.98 µM
[39]
  GI50: 744 nM
  TGI: 2900 nM
[40]
  GI50: 2360 nM
  TGI: 10.7 µM
[41]
  GI50: 668 nM
  TGI: 7.97 µM
[42]
  GI50: 944 nM
  TGI: 10.4 µM
[43]
  GI50: 2120 nM
  TGI: 7.41 µM
[44]
  GI50: 1890 nM
  TGI: 4350 nM
[45]
  GI50: 829 nM
  TGI: 5270 nM
[46]
  GI50: 3710 nM
  TGI: > 100 µM
[47]
  GI50: 822 nM
  TGI: 6.2 µM
[48]
  GI50: 654 nM
  TGI: 44.8 µM
[49]
  GI50: 619 nM
  TGI: 13.9 µM
[50]
  GI50: 689 nM
  TGI: 17.8 µM
[51]
  GI50: 2950 nM
  TGI: 45.2 µM
[52]
  GI50: 731 nM
  TGI: > 100 µM
[53]
  GI50: 1370 nM
  TGI: 6.97 µM
[54]
  GI50: 588 nM
  TGI: 12.5 µM
[55]
  GI50: 990 nM
  TGI: 3560 nM
[56]
  GI50: 1250 nM
  TGI: 5.98 µM

## CN([N-]C(=O)CC(=O)[N-]N(C)C(=S)c1ccccc1)C(=S)c1ccccc1.[Cu+2]
[1]
  GI50: 24.1 nM
  TGI: 141 nM
[2]
  GI50: 33 nM
  TGI: 0.133 µM
[3]
  GI50: 59.9 nM
  TGI: 192 nM
[4]
  GI50: < 10 nM
  TGI: 0.0284 µM
[5]
  GI50: < 10 nM
  TGI: 14 nM
[6]
  GI50: < 12.9 nM
  TGI: 68.3 nM
[7]
  GI50: 59.8 nM
  TGI: 0.176 µM
[8]
  GI50: 22.7 nM
  TGI: 140 nM
[9]
  GI50: 22.8 nM
  TGI: 0.13 µM
[10]
  GI50: 44.5 nM
  TGI: 0.175 µM
[11]
  GI50: 34.6 nM
  TGI: 146 nM
[12]
  GI50: 66.6 nM
  TGI: 231 nM
[13]
  GI50: < 10 nM
  TGI: 101 nM
[14]
  GI50: 29.8 nM
  TGI: 0.116 µM
[15]
  GI50: 37.7 nM
  TGI: 172 nM
[16]
  GI50: < 10 nM
[17]
  GI50: 138 nM
  TGI: 0.271 µM
[18]
  GI50: 50.3 nM
  TGI: 116 nM
[19]
  GI50: 43.7 nM
  TGI: 0.171 µM
[20]
  GI50: 59.8 nM
  TGI: 0.232 µM
[21]
  GI50: 33.2 nM
  TGI: 149 nM
[22]
  GI50: < 26.1 nM
  TGI: 456 nM
[23]
  GI50: < 10 nM
  TGI: 121 nM
[24]
  GI50: 10.1 nM
  TGI: 0.0689 µM
[25]
  GI50: 33.3 nM
  TGI: 0.098 µM
[26]
  GI50: 129 nM
  TGI: 0.261 µM
[27]
  GI50: 26.3 nM
  TGI: 114 nM
[28]
  GI50: 142 nM
  TGI: 0.275 µM
[29]
  GI50: < 10 nM
  TGI: 25.6 nM
[30]
  GI50: 33.1 nM
  TGI: 125 nM
[57]
  GI50: < 10 nM
  TGI: 40.6 nM
[31]
  GI50: 46.1 nM
  TGI: 174 nM
[32]
  GI50: 22.3 nM
  TGI: 119 nM
[33]
  GI50: < 13 nM
  TGI: 28.1 nM
[34]
  GI50: < 10 nM
  TGI: 30 nM
[35]
  GI50: 35.3 nM
  TGI: 0.152 µM
[36]
  GI50: < 10.8 nM
  TGI: 220 nM
[37]
  GI50: 113 nM
  TGI: 0.263 µM
[38]
  GI50: 134 nM
  TGI: 0.275 µM
[39]
  GI50: 82.5 nM
  TGI: 220 nM
[41]
  GI50: 22.1 nM
  TGI: 0.132 µM
[42]
  GI50: 19.4 nM
  TGI: 0.0585 µM
[43]
  GI50: < 10 nM
  TGI: 0.063 µM
[44]
  GI50: 63.5 nM
  TGI: 225 nM
[45]
  GI50: 37 nM
  TGI: 176 nM
[46]
  GI50: 66.3 nM
[47]
  GI50: 45.9 nM
  TGI: 0.159 µM
[58]
  GI50: 124 nM
  TGI: 253 nM
[48]
  GI50: 28.4 nM
  TGI: 0.224 µM
[49]
  GI50: 20.6 nM
  TGI: 0.108 µM
[50]
  GI50: < 10 nM
  TGI: 0.0619 µM
[51]
  GI50: 85.1 nM
  TGI: 0.619 µM
[52]
  GI50: < 10 nM
[53]
  GI50: 35 nM
  TGI: 0.127 µM
[54]
  TGI: 0.0275 µM
[55]
  GI50: 26.6 nM
  TGI: 72.9 nM
[56]
  GI50: 183 nM
  TGI: 0.467 µM
